Reference: patent US5017581A, “Pyridonecarboxylic acids and their anti-bacterial compositions” (Shionogi & Co., Ltd., priority 1988, dated 1991)
Values after ≈ are worked out from the molar mass of the structure shown.

What was measured:
[1] = Convulsion and psychotropic action in mice after oral administration; format: in vivo; settings: orally, dose of 10 mg
[2] = tested on: Escherichia coli 7437; test: Antibacterial spectrum, MIC (method of the Japan Society of Chemotherapy), C; format: cell-based; settings: 10^6 cells/ml, read-out: MIC (minimum grouth inhibitory concentration)
Description: (§1) The antibacterial activity was determined by measuring minimum grouth inhibitory concentrations (MICs) in accordance with the method as designated by the Japan Society of Chemotherapy. A, B, C, and D in the table indicate the following meanings: C: Escherichia coli 7437 The test microorganisms were used at 10^6 cells/ml.

[3] = tested on: Staphylococcus aureus SR 14 (R); test: Antibacterial spectrum, MIC (method of the Japan Society of Chemotherapy), B; format: cell-based; settings: 10^6 cells/ml, read-out: MIC (minimum grouth inhibitory concentration)
Description: The antibacterial activity was determined by measuring minimum grouth inhibitory concentrations (MICs) in accordance with the method as designated by the Japan Society of Chemotherapy.
A, B, C, and D in the table indicate the following meanings:
B: Staphylococcus aureus SR 14 (R)
The test microorganisms were used at 10^6 cells/ml.

[4] = tested on: Escherichia coli PC 51149 B; test: Antibacterial spectrum, MIC (method of the Japan Society of Chemotherapy), D; format: cell-based; settings: PC51149B, 10^6 cells/ml, read-out: MIC (minimum grouth inhibitory concentration)
Description: as §1, with “D:” for “C:”, “PC 51149 B” for “7437”

[5] = tested on: Staphylococcus aureus Smith; test: Antibacterial spectrum, MIC (method of the Japan Society of Chemotherapy), A; format: cell-based; settings: 10^6 cells/ml, read-out: MIC (minimum grouth inhibitory concentration)
Description: as §1, with “A: Staphylococcus aureus Smith” for “C: Escherichia coli 7437”

SMILES | MIC [2] [µg/mL] | MIC [3] [µg/mL] | MIC [4] [µg/mL] | MIC [5] [µg/mL] | convulsion and psychotropic action [1]
C=C1CN(c2c(F)c(N)c3c(=O)c(C(=O)O)cn(C4CC4)c3c2F)CC1N (stereo not drawn) [Compound I-3, 1-Cyclopropyl-5-amino-6,8-difluoro-7-(3-amino-4-methylenepyrrolydin-1-yl)-1,4-dihydro-4-oxo-3-quinolinecarboxylic acid] | < 0.003 | 0.05 (≈ 0.133 µM) | < 0.003 | 0.02 (≈ 0.0531 µM) | –
C=C1CN(c2nc3c(cc2F)c(=O)c(C(=O)O)cn3C2CC2)CC1N (stereo not drawn) [Compound I-4, 1-Cyclopropyl-6-fluoro-7-(3-amino-4-methylenepyrrolidin-1-yl)-1,4-dihydro-4-oxo-1,8-naphthyridine-3-carboxylic acid] | < 0.003 | 0.1 (≈ 0.29 µM) | 0.006 (≈ 0.0174 µM) | 0.1 (≈ 0.29 µM) | –
C=C1CN(c2c(F)cc3c(=O)c(C(=O)O)cn(C4CC4)c3c2F)CC1NC (stereo not drawn) [Compound I-5, 1-Cyclopropyl-6,8-difluoro-7-(3-methylamino-4-methylenepyrrolidin-1-yl)-1,4-dihydro-4-oxo-3-quinolinecarboxylic acid] | < 0.003 | 0.05 (≈ 0.133 µM) | 0.006 (≈ 0.016 µM) | 0.05 (≈ 0.133 µM) | –

The next lines start with results.

MIC [2] [µg/mL] | MIC [3] [µg/mL] | MIC [4] [µg/mL] | MIC [5] [µg/mL] | SMILES | convulsion and psychotropic action [1]
< 0.003 | 0.05 (≈ 0.138 µM) | < 0.003 | 0.05 (≈ 0.138 µM) | C=C1CN(c2c(F)cc3c(=O)c(C(=O)O)cn(C4CC4)c3c2F)CC1N (stereo not drawn) [Compound I-1, 1-Cyclopropyl-6,8-difluoro-7-(3-amino-4-methylenepyrrolidin-1-yl)-1,4-dihydro-4-oxo-3-quinolinecarboxylic acid] | neither convulsion nor psychotropic action was observed
< 0.003 | 0.02 (≈ 0.0529 µM) | < 0.003 | 0.01 (≈ 0.0265 µM) | C=C1CN(c2c(F)cc3c(=O)c(C(=O)O)cn(C4CC4)c3c2Cl)CC1N (stereo not drawn) [Compound I-2, 1-Cyclopropyl-8-chloro-6-fluoro-7-(3-amino-4-methylenepyrrolidin-1-yl)-1,4-dihydro-4-oxo-3-quinolinecarboxylic acid] | –
